Source: patent publication US7189518B2, “Soluble CD40L(CD154) as a prognostic marker of atherosclerotic diseases” (The Brigham and Women's Hospital, Inc., priority 2001, dated 2007)

Tests used:
Assay type in all cases: cell-based
[1] = test system: human vascular EC, SMC, and MØ; experiment: Western blot of CD40 and CD40L protein expression in cultured human vascular cells; settings: for Concentration required to reduce CD40/CD40L expression: higher than for cerivastatin
Experimental: Viability of the cultures was determined by trypan blue (Sigma, St. Louis, Mo.) exclusion count as well as an oligonucleosome formation assay (Cell Death Detection ELISA, Boehringer Mannheim, Germany).
Culture lysates (50 μg total protein/lane) and supernatants were separated by SDS-PAGE and blotted to polyvinylidene difluoride membranes (Bio-Rad, Hercules, Calif.) using a semi-dry blotting apparatus (3 mA/cm^2, 30 min; Bio-Rad, Hercules, Calif.). Blots were blocked and primary (mouse-anti-human CD40 or CD40L; both 1:1,000; PharMingen, San Diego, Calif.) antibodies were added in 5% defatted dry milk/PBS/0.1% Tween 20. After 1 h, blots were washed three times (PBS/0.1% Tween 20) and secondary, peroxidase-conjugated, goat-anti-mouse antibody (Jackson Immunoresearch, West Grove, Pa.) was added (1 h). Finally, blots were washed and immunoreactive proteins were visualized using the Western blot chemiluminescence system (NEN™, Boston, Mass.). Data were verified by employing anti-CD40/-CD40L antibodies from Santa Cruz (Santa Cruz, Calif.).

human vascular EC and MØ = experiment: RT-PCR of CD40 and CD40L mRNA expression in cultured human vascular cells
Experimental: (§1) Human vascular EC and SMC were isolated from saphenous veins and cultured as described previously.^4,26 Mononuclear phagocytes (MØ) were isolated from leukocyte concentrates by density gradient centrifugation employing Lymphocyte Separation Medium (Organon-Teknika, Durham, N.C.) and were cultured (10 days) in RPMI 1640 (BioWhittaker, Walkersville, Md.) containing 2% human serum (Sigma; St. Louis, Mo.).^26 All cell types were cultured 24 h before and during the experiment in media lacking serum. Viability of the cultures was determined by trypan blue (Sigma, St. Louis, Mo.) exclusion count as well as an oligonucleosome formation assay (Cell Death Detection ELISA, Boehringer Mannheim, Germany).
Total RNA isolated from cultured EC, SMC, or MØ employing RNAzol (Tel-Test; Friendswood, Tex.) was assessed for purity and yield spectrophotometrically (2100 Bioanalyzer, Agilent Technologies, Wilmington, Del.) and was reverse-transcribed (2 μg total RNA; 50 min, 42° C.) employing Superscript II Reverse Transcriptase (LifeTechnologies, Carlsbad, Calif.). PCR was performed for 35 cycles at 95° C. (120 sec), 62° C. (120 sec), and 72° C. […] PCR products were analyzed on ethidium bromide-containing 1.3% agarose gels and visualized by UV transillumination. […]

[2] = test system: human vascular EC, as well as MØ; experiment: Flow cytometry of CD40 and CD40L cell surface expression
Experimental: as §1
Human vascular EC, SMC, or MØ were washed with ice-cold PBS, harvested by trypsinization, and fixed (PBS/4% paraformaldehyde, 15 min). Subsequently, the cells were washed once with PBS/2% BSA before being incubated (1 h, 4° C.) with either buffer alone or FITC-conjugated control IgG, mouse-anti-human CD40, or mouse-anti-human CD40L antibody (1 μg/ml; PharMingen, San Diego, Calif.). Finally, cells were washed with PBS/2% BSA and analyzed in a Becton Dickinson FACSCAN® flow cytometer employing […]® software (Becton Dickinson; San Jose, Calif.). At least 20,000 viable cells per condition were analyzed.

CC(O)(CCO)CC(=O)O (centres unmarked) [Mevalonate]
Effect on the expression of CD40 and CD40L diminished by statins ([1]; protein, Western blot): reversed | Effect on the expression of CD40 and CD40L transcripts diminished by statins (human vascular EC and MØ): reversed

CC(C)c1c(C(=O)Nc2ccccc2)c(-c2ccccc2)c(-c2ccc(F)cc2)n1CC[C@@H](O)C[C@@H](O)CC(=O)O [atorvastatin]
Concentration required to reduce CD40/CD40L expression ([1]; Western blot): 100 nM | Constitutive as well as cytokine-induced expression of CD40 and CD40L protein and transcript ([1]; human vascular EC, SMC, and MØ, summary in the discussion, also covers RT-PCR): significantly diminished | Order of the statins by concentration needed for equal reduction in CD40/CD40L expression [2]: cerivastatin>simvastatin=atorvastatin

CCC(C)(C)C(=O)O[C@H]1C[C@@H](C)C=C2C=C[C@H](C)[C@H](CC[C@@H]3C[C@@H](O)CC(=O)O3)[C@H]21 [simvastatin]
Concentration required to reduce CD40/CD40L expression ([1]; Western blot): 100 nM

COCc1c(C(C)C)nc(C(C)C)c(/C=C/[C@@H](O)C[C@@H](O)CC(=O)O)c1-c1ccc(F)cc1 [cerivastatin]
Concentration at which the constitutive as well as IL-1β/TNFα/IFNγ-induced expression of the receptor (CD40) was diminished ([1]; EC, Western blot): > 2 nM | Concentration for maximal inhibition of CD40 expression ([1]; EC, Western blot): 10 to 50 nM
